This is an account of results in ChEMBL document CHEMBL5370603, “N-(2-Aminophenyl)-benzamide Inhibitors of Class I HDAC Enzymes with Antiproliferative and Antifibrotic Activity” (J Med Chem, 2023).

For one experiment, the target named is Histone deacetylase 1 (Homo sapiens, UniProt Q13547). Kind of experiment: Inhibition of human recombinant HDAC1 using Ac-Leu-Gly-Lys(Ac)-AMC as substrate preincubated with enzyme for 30 mins followed by substrate addition and measured after 90 mins by fluorescence based analysis.
In experiment [1] the target is T1, Protein deacetylase HDAC6 (Homo sapiens, UniProt Q9UBN7).
T1 sequence (Q9UBN7 whole entry): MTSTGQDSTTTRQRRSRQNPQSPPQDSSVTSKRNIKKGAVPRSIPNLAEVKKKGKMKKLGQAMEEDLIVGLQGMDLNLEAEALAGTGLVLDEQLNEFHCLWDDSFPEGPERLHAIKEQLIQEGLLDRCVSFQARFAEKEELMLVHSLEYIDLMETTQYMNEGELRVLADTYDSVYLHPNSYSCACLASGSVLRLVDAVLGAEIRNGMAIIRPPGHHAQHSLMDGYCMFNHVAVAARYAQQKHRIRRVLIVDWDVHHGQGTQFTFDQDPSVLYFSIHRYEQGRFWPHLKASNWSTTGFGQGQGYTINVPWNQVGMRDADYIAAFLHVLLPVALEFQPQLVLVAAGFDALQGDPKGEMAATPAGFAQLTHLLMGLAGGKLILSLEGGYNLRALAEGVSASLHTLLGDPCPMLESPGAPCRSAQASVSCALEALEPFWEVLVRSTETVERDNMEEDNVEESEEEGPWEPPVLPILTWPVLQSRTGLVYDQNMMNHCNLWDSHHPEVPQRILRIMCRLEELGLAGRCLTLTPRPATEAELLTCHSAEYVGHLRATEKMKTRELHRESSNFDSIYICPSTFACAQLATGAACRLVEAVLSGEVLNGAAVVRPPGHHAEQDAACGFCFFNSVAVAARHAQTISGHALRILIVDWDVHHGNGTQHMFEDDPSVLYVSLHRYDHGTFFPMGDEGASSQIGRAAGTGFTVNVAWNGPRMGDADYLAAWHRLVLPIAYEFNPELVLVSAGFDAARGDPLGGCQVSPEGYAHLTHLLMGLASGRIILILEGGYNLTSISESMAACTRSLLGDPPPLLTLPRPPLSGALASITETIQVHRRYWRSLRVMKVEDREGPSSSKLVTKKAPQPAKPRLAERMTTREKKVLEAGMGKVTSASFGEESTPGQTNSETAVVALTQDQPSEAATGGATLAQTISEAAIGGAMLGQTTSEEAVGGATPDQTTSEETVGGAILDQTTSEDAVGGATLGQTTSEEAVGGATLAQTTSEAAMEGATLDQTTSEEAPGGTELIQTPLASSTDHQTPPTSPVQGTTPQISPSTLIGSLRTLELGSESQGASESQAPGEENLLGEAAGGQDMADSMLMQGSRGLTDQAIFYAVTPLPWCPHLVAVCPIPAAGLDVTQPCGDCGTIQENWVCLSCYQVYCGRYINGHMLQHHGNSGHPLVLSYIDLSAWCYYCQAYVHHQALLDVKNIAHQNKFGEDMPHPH
Kind of experiment: Inhibition of C-terminal FLAG-tagged human recombinant full length HDAC6 expressed in baculovirus expression system using Boc-Lys(Ac)-AMC as substrate preincubated with enzyme for 15 mins followed by substrate addition and measured after 60 mins by fluorescence based analysis.

The next experiment concerns A549. As to the kind of experiment: Antiproliferative activity against human A549 cells assessed as inhibition of cell growth incubated for 72 hrs by MTT assay. It is filed as functional, cell-based. The note with it: A549, 72 h. In general terms: Tetrazolium assays rely on reduction of a dye to a coloured formazan, in cell work by metabolically active cells.
The subject of a further experiment is SF-268. Kind of experiment: Antiproliferative activity against human SF-268 cells assessed as inhibition of cell growth incubated for 72 hrs by MTT assay. The class given is functional, cell-based. The note with it: SF-268, 72 h.
The target in the next experiment is Histone deacetylase 2 (Homo sapiens, UniProt Q92769). Kind of experiment: Inhibition of human recombinant HDAC2 using Ac-Leu-Gly-Lys(Ac)-AMC as substrate preincubated with enzyme for 30 mins followed by substrate addition and measured after 90 mins by fluorescence based analysis.
The target of a further experiment is Histone deacetylase 3 (Homo sapiens, UniProt O15379). Kind of experiment: Inhibition of human recombinant HDAC3 using Ac-Leu-Gly-Lys(Ac)-AMC as substrate preincubated with enzyme for 30 mins followed by substrate addition and measured after 90 mins by fluorescence based analysis.
Another experiment has as its target T2, Histone deacetylase 8 (Homo sapiens, UniProt Q9BY41).
T2 sequence (Q9BY41 whole entry): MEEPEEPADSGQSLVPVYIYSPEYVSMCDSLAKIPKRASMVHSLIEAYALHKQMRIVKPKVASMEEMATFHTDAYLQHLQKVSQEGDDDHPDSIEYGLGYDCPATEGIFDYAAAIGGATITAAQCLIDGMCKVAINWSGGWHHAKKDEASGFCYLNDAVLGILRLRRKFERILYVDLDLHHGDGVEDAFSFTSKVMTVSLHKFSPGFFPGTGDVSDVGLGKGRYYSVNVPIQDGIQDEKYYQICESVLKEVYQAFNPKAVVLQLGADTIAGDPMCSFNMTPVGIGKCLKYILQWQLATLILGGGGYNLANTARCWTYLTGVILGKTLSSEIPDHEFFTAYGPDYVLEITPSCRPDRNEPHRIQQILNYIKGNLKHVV
As to the kind of experiment: Inhibition of C-terminal His-tagged human recombinant full length HDAC8 (1 to 377 residues) expressed in Sf9 cells using Ac-Leu-Gly-Lys(trifluoroAc)-AMC as substrate preincubated with enzyme for 30 mins followed by substrate addition and measured after 90 mins by fluorescence based analysis.

For the next experiment, the target named is Histone deacetylase 4 (Homo sapiens, UniProt P56524). As to the kind of experiment: Inhibition of N-terminal GST-tagged/C-terminal His tagged human recombinant HDAC4 (627 to 1084 residues) expressed in baculovirus-infected Sf9 cells using Ac-Leu-Gly-Lys(trifluoroAc)-AMC as substrate preincubated with enzyme for 15 mins followed by substrate addition and measured after 60 mins by fluorescence based analysis.

Another experiment relates to Caco-2. As to the kind of experiment: Antiproliferative activity against human Caco-2 cells assessed as inhibition of cell growth incubated for 72 hrs by MTT assay. The class given is functional, cell-based. The note with it: Caco-2, 72 h.

For orientation: IC50 means the concentration needed to halve the response being measured.

Histone deacetylase 2, sequence (Q92769 whole entry): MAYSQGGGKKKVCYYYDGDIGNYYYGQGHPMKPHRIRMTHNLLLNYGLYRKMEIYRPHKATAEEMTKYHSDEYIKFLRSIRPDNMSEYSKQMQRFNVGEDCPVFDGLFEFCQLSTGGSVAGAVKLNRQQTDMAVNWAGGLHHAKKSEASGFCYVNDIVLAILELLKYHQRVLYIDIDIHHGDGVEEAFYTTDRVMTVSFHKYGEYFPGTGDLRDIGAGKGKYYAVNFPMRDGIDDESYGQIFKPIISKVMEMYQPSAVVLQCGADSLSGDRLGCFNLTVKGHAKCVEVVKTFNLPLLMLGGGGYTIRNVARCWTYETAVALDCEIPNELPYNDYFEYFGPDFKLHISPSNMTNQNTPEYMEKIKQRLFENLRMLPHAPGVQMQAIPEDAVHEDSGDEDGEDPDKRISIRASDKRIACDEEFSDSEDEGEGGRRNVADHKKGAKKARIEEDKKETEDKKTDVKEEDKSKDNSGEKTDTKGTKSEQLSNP
Histone deacetylase 1, sequence (Q13547 whole entry): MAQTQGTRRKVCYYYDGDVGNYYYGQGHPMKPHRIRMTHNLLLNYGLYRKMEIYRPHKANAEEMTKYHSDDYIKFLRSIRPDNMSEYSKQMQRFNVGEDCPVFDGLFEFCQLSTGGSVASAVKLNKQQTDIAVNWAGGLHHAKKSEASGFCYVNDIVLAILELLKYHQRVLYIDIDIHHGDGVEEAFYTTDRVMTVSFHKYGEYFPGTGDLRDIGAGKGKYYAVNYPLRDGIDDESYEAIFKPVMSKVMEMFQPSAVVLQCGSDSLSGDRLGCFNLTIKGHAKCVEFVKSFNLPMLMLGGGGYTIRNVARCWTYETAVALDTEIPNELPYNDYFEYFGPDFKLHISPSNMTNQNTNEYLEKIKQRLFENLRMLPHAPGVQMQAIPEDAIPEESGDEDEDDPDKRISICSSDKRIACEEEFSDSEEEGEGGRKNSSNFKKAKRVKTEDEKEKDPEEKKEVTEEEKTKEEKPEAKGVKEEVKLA
Histone deacetylase 3, sequence (O15379 whole entry): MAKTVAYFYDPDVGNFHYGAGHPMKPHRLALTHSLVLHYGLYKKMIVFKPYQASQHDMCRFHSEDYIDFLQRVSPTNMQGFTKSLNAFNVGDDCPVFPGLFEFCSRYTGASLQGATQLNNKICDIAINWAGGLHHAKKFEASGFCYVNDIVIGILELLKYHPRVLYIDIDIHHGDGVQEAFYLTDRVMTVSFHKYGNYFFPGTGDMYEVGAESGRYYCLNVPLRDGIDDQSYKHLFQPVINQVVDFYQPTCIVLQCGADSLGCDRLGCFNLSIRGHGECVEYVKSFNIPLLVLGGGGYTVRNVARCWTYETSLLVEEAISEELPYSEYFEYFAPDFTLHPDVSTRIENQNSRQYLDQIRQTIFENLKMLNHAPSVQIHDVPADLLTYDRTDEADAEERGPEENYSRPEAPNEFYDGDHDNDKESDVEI
Histone deacetylase 4, sequence (P56524 whole entry, the tested form may be a part): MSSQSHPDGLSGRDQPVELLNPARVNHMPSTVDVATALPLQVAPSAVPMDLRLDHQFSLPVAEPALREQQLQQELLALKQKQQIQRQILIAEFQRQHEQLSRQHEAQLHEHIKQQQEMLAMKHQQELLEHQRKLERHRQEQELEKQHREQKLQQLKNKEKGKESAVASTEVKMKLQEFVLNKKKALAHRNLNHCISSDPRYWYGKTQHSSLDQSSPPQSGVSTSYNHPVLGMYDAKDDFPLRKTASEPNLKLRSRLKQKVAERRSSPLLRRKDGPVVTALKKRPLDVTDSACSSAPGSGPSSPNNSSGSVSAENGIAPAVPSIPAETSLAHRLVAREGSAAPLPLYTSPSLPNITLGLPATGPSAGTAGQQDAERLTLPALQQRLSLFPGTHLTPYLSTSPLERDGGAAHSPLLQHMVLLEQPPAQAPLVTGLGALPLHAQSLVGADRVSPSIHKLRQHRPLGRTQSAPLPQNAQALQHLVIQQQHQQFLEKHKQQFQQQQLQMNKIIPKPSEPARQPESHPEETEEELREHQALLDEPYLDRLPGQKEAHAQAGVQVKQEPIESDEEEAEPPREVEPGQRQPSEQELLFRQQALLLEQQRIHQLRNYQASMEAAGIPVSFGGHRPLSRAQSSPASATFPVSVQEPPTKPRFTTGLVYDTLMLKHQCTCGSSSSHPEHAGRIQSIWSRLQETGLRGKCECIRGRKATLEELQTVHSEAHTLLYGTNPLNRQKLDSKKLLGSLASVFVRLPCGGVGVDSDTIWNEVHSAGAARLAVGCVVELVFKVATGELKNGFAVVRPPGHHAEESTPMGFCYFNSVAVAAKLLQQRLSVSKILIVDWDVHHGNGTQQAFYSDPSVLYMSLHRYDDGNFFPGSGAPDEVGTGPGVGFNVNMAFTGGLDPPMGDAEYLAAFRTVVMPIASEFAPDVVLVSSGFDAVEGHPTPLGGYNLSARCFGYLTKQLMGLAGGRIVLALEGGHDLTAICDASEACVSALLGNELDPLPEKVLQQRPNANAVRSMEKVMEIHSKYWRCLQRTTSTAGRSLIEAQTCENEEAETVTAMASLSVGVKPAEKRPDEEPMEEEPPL

In the case of `O=C(O)c1ccc(COc2ccc(CNC(=O)[C@@H]3CCC(=O)N3Cc3ccc(Br)cc3)cc2)cc1`, the IC50 at Histone deacetylase 1 is more than 10 µM; in experiment [1] it was more than 10 µM; with A549 it was more than 25 µM; in the experiment on SF-268, more than 25 µM.
As to `O=C(Nc1ccccc1)c1ccc(COc2ccc(CNC(=O)[C@@H]3CCC(=O)N3Cc3ccccc3)cc2)cc1`, the IC50 on Histone deacetylase 1 is more than 10 µM; in [1], more than 10 µM; in the experiment on A549 it was more than 25 µM; in the experiment with SF-268, more than 25 µM.
On to `Nc1ccccc1NC(=O)c1ccc(COc2ccc(CNC(=O)[C@@H]3CCCN3Cc3ccc(F)cc3)cc2)cc1`, for which the IC50 was 0.13 µM on Histone deacetylase 1; 0.196 µM at Histone deacetylase 2; more than 100 µM in experiment [1]; 5.1 µM in the experiment with A549; 4.8 µM in the experiment with SF-268.
`Nc1ccccc1NC(=O)c1ccc(COc2ccc(CNC(=O)[C@@H]3CCCN3)cc2)cc1`: the IC50 is 0.055 µM at Histone deacetylase 1; 0.072 µM on Histone deacetylase 2; 0.061 µM on Histone deacetylase 3; more than 100 µM in experiment [1]; more than 10 µM on Histone deacetylase 8; more than 100 µM on Histone deacetylase 4. Further, the IC50 with A549 came to 10 µM; in the experiment on SF-268, 3.3 µM.
Consider `O=C(O)c1ccc(COc2ccc(CNC(=O)[C@@H]3CCC(=O)N3Cc3ccccc3)cc2)cc1`, for which the IC50 on Histone deacetylase 1 is more than 10 µM; in experiment [1] it was more than 10 µM; in the experiment on A549 it was more than 25 µM; with SF-268 it was more than 25 µM.
On to `Nc1ccccc1NC(=O)c1ccc(COc2ccc(CNC(=O)c3ccccn3)cc2)cc1`, for which the IC50 on Histone deacetylase 1 is 0.2 µM; in experiment [1], more than 10 µM; in the experiment on A549 it was 6.8 µM; in the experiment with SF-268, 9.8 µM.
The matching figures for `O=C(NCc1ccc(OCc2ccc(B(O)O)cc2)cc1)[C@@H]1CCC(=O)N1Cc1ccccc1`: more than 10 µM, more than 10 µM, more than 25 µM and more than 25 µM.
The matching figures for `Nc1ccccc1NC(=O)c1ccc(COc2ccc(CNC(=O)[C@@H]3CCCN3C(=O)OCc3ccccc3)cc2)cc1`: 0.202 µM, more than 10 µM, more than 25 µM and 12.7 µM.
The matching figures for `CC(C)(C)OC(=O)NCc1ccc(OCc2ccc(C(=O)Nc3ccccc3N)cc2)cc1`: 1.71 µM, more than 10 µM, 14.6 µM and 8.6 µM.
As to `Nc1ccccc1NC(=O)c1ccc(COc2ccc(CNC(=O)[C@@H]3CCCN3C(=O)c3ccccc3)cc2)cc1`, the IC50 is 0.216 µM at Histone deacetylase 1, more than 10 µM in experiment [1], 16 µM in the experiment on A549 and 9.2 µM in the experiment with SF-268.
Regarding `O=C(NO)c1ccc(COc2ccc(CNC(=O)[C@@H]3CCC(=O)N3Cc3ccccc3)cc2)cc1`, the figures for the IC50 (on Histone deacetylase 1; in experiment [1]; with A549) were 1.98 µM, 0.143 µM and more than 25 µM, respectively.
On to `Nc1ccccc1NC(=O)c1ccc(COc2ccc(CNC(=O)[C@@H]3CCC(=O)N3Cc3ccc(Br)cc3)cc2)cc1`, for which the IC50 was 0.051 µM on Histone deacetylase 1; 0.082 µM on Histone deacetylase 2; more than 100 µM in experiment [1]; 9.2 µM in the experiment on A549; 6.6 µM with SF-268.
In the same order, the values of `Nc1ccccc1NC(=O)c1ccc(COc2ccc(CNC(=O)[C@H]3CCCN3Cc3ccccc3)cc2)cc1` are 0.093 µM, 0.083 µM, more than 100 µM, 4.7 µM and 3.1 µM.
Turning to `Nc1ccccc1NC(=O)c1ccc(COc2ccc(CNC(=O)[C@@H]3CCC(=O)N3Cc3ccc(F)cc3)cc2)cc1`, the IC50 at Histone deacetylase 1 is 0.216 µM; on Histone deacetylase 2 it was 0.348 µM; in experiment [1], more than 100 µM; in the experiment on A549, 6.9 µM; with SF-268, 6.5 µM; in the experiment on Caco-2, 1.9 µM.
With `Nc1ccccc1NC(=O)c1ccc(COc2ccc(CNC(=O)c3cc4ccccc4[nH]3)cc2)cc1`, the IC50 on Histone deacetylase 1 was 0.182 µM; in [1], more than 10 µM; in the experiment on A549, 5.2 µM; in the experiment on SF-268 it was 16.5 µM.
Turning to `NCc1ccc(OCc2ccc(C(=O)Nc3ccccc3N)cc2)cc1`, the IC50 was 0.1 µM at Histone deacetylase 1; 0.052 µM on Histone deacetylase 3; more than 10 µM in experiment [1]; more than 10 µM at Histone deacetylase 8; more than 100 µM at Histone deacetylase 4; more than 25 µM with A549. For the same compound, the IC50 with SF-268 came out at 8.5 µM.
For `O=C(NCc1ccccc1)c1ccc(COc2ccc(CNC(=O)[C@@H]3CCC(=O)N3Cc3ccccc3)cc2)cc1`, the IC50 on Histone deacetylase 1 was more than 10 µM; in [1], more than 10 µM; with A549, more than 25 µM; in the experiment on SF-268, more than 25 µM.
Regarding `Nc1ccccc1NC(=O)c1ccc(COc2ccc(CN3C(=O)CC[C@H]3CC(=O)NCc3ccccc3)cc2)cc1`, the IC50 at Histone deacetylase 1 is 0.084 µM; at Histone deacetylase 2 it was 0.217 µM; in [1], more than 100 µM; with A549, 15 µM; in the experiment with SF-268, 7.1 µM.
On to `O=C(O)c1ccc(COc2ccc(CNC(=O)[C@@H]3CCCN3Cc3ccccc3)cc2)cc1`, for which the IC50 at Histone deacetylase 1 is more than 10 µM; in [1], more than 10 µM; with A549, more than 25 µM; in the experiment on SF-268, more than 25 µM.
